Source: patent US9643964B2, “3-(2-aminopyrimidin-4-yl)-5-(3-hydroxypropynyl)-1H-pyrrolo[2,3-C]pyridine derivatives as NIK inhibitors for the treatment of cancer” (Janssen Pharmaceutica NV, priority 2013, dated 2017)

Tests used:
[1] = system: P-IKKα levels in L363 cells; assay: Biological Assay B: effect of compounds on P-IKKα levels in L363 cells; format: cell-based; settings: Homo sapiens, L-363, averaged values, read-out: IKKα Cellular IC50
Protocol: Effect of Compounds on P-IKKα Levels in L363 Cells
All compounds tested were dissolved in DMSO and further dilutions were made in culture medium. Final DMSO concentration was 1% (v/v) in cell assays. The human L363 cells (ATCC) were cultured in RPMI 1640 medium supplemented with GlutaMax and 10% fetal calf serum (PAA). Cells were routinely maintained at densities of 0.2×10^6 cells per ml-1×10^6 cells per ml at 37° C. in a humidified 5% CO2 atmosphere. Cells were passaged twice a week splitting back to obtain the low density. Cells were seeded in 96 well plates (Nunc 167008) at 2×10^6 per ml media in a volume of 75 μl per well plus 25 μl 1 μg/ml recombinant human B-cell activating factor BAFF/B1YS/TNFSF13B. Seeded cells were incubated at 37° C. in a humidified 5% CO2 atmosphere for 24 hr. Drugs and/or solvents were added (20 μl) to a final volume of 120 μl. Following 2 hr treatment plates were removed from the incubator and cell lysis was achieved by the addition of 30 μl 5× lysis buffer followed by shaking on a plate shaker at 4° C. for 10 min. At the end of this incubation lysed cells were centrifuged at 800×g for 20 min at 4° C. and the lysate was assessed for P-IKKα levels by sandwich immuno-assay carried out in anti-rabbit antibody coated Mesoscale plates. Within an experiment, the results for each treatment were the mean of 2 replicate wells. For initial screening purposes, compounds were tested using an 8 point dilution curve (serial 1:3 dilutions). For each experiment, controls (containing MG132 and BAFF but no test drug) and a blank incubation (containing MG132 and BAFF and 10 μM ADS125117, a test concentration known to give full inhibition) were run in parallel. The blank incubation value was subtracted from all control and sample values. To determine the IC50 a sigmoidal curve was fitted to the plot of % inhibition of control P-IKKα levels versus Log10 compound concentration.

JJN-3 cells = assay: Biological Assay C: antiproliferative activity on JJN-3 cells (CellTiter-Glo); format: cell-based, human; settings: Homo sapiens, JJN-3, 72 h, 72 hr treatment; averaged values
Procedure, shortened: (§1)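 Luminescent ATP signal (CellTiter-Glo) measures growth of myeloma cells following a 72 h compound treatment. Values for the time-zero blank are subtracted, and each mean of duplicate wells is given as percentage of the no-drug control.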

[2] = target: T1, Recombinant Human NF-kappaB-Inducing Kinase (NIK/MAP3K14) (Homo sapiens, UniProt Q99558); assay: Biological Assay A2: inhibition of auto-phosphorylation of recombinant human NIK/MAP3K14 (AlphaScreen); format: biochemical; settings: auto-phosphorylation; averaged over all measurements on all batches; read-out: αscreen IC50
T1 sequence (Q99558 whole entry): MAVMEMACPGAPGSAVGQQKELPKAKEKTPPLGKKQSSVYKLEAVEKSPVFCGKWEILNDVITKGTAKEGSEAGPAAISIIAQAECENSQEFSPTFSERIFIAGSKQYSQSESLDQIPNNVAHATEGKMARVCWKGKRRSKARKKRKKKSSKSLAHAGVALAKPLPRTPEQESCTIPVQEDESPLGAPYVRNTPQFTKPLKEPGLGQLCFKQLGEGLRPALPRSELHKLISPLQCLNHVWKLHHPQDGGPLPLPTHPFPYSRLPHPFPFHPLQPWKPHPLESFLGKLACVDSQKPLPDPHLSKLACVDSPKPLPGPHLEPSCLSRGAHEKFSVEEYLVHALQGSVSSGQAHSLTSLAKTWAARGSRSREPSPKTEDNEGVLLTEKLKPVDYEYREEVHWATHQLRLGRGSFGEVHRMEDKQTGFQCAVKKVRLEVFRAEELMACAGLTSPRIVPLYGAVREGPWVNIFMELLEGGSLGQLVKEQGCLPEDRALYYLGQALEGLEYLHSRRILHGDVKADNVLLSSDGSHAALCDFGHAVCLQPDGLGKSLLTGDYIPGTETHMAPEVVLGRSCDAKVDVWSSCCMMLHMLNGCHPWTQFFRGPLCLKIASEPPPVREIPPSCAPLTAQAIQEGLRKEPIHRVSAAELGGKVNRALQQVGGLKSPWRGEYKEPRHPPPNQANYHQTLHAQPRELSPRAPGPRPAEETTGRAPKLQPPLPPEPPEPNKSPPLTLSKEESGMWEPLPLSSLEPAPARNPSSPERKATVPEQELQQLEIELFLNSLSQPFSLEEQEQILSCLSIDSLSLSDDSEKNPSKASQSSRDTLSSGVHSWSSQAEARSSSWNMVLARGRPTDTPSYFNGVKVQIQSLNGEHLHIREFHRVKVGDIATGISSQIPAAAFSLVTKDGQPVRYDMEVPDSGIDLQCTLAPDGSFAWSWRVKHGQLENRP
Procedure, shortened: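 AlphaScreen readout of anti-phospho-IKK Ser176/180 signal after 1 h, 25° C. incubation of 0.2 nM GST-NIK with compound and 25 microM ATP (Tris pH 7.5 buffer, MgCl2, 1% DMSO final). IC50 from sigmoidal fit of blank-corrected % inhibition against Log10 concentration.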

[3] = target: T1, Recombinant Human NF-kappaB-Inducing Kinase (NIK/MAP3K14); assay: Biological Assay A: inhibition of recombinant human NIK/MAP3K14 activity (MBP phosphorylation, Mesoscale); format: biochemical; settings: averaged over all measurements on all batches; read-out: Biochemical (MSD MBP) IC50
Procedure, shortened: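 10 nM NIK with 25 μM ATP on MBP-coated plates in Tris pH 7.5 buffer with MgCl2, DTT and Na3VO4 and 1% DMSO, for 1 h at 25° C. Phospho-MBP was detected by anti-phospho-MBP and Sulfotag electrochemiluminescence; after blank subtraction, IC50 came from a sigmoidal fit of % inhibition.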

LP-1 cells = assay: Biological Assay C: antiproliferative activity on LP-1 cells (CellTiter-Glo); format: cell-based, human; settings: Homo sapiens, LP-1, 72 h, 72 hr treatment; averaged values
Procedure, shortened: as §1

L-363 cells = assay: Biological Assay C: antiproliferative activity on L-363 cells (CellTiter-Glo); format: cell-based, human; settings: Homo sapiens, L-363, 72 h, 72 hr treatment; averaged values
Procedure, shortened: as §1

SMILES	IC50 [1]	EC50 (JJN-3 cells)	IC50 [2]	IC50 [3]	EC50 (LP-1 cells)	EC50 (L-363 cells)
CC(C)(O)Cn1cc(-c2ccnc(N)n2)c2cc(C#CC3(O)CCOC3)ncc21 (stereo not drawn) [Compound 29]	6300 nM	> 10000 nM	110 nM	140 nM	> 10 µM	> 10000 nM
CN(C)C(=O)Cn1cc(-c2ccnc(N)n2)c2cc(C#CC(C)(C)O)ncc21 [Compound 30]	1700 nM	12000 nM	930 nM	120 nM	> 10 µM	24000 nM
COCCn1cc(-c2ccnc(N)n2)c2cc(C#CC(C)(O)c3ncco3)ncc21 (stereo not drawn) [Compound 31]	110 nM	1900 nM	79 nM	36 nM	> 10 µM	6400 nM
COCCn1cc(-c2ccnc(N)n2)c2cc(C#CC(C)(O)C3CC3)ncc21 (stereo not drawn) [Compound 32]	89 nM	460 nM	40 nM	59 nM	1.5 µM	740 nM
CC(C)(O)Cn1cc(-c2nc(N)ncc2Cl)c2cc(C#CC3(O)CCCC3)ncc21 [Compound 33]	53 nM	150 nM	16 nM	4.2 nM	4.1 µM	1100 nM
CN1CC(n2cc(-c3ccnc(N)n3)c3cc(C#CC(C)(C)O)ncc32)C1 [Compound 34]	160 nM	330 nM	42 nM	76 nM	4.1 µM	240 nM
CCC(O)(C#Cc1cc2c(-c3ccnc(N)n3)cn(CCOC)c2cn1)CC [Compound 35]	470 nM	2000 nM	150 nM	120 nM	3.8 µM	3000 nM
CC(C)(O)Cn1cc(-c2ccnc(N)n2)c2cc(C#CC(C)(O)c3ccccc3)ncc21 (stereo not drawn) [Compound 36]	900 nM	1700 nM	86 nM	17 nM	12 µM	7900 nM
CC(C)(O)Cn1cc(-c2ccnc(N)n2)c2cc(C#CC(C)(O)C3CCC3)ncc21 (stereo not drawn) [Compound 37]	330 nM	3600 nM	100 nM	45 nM	> 10 µM	16000 nM
CC(C)(O)Cn1cc(-c2ccnc(N)n2)c2cc(C#CC3(O)CCCCC3)ncc21 [Compound 38]	370 nM	1900 nM	56 nM	21 nM	> 10 µM	15000 nM
CC(C)C(C)(O)C#Cc1cc2c(-c3ccnc(N)n3)cn(CC(C)(C)O)c2cn1 (stereo not drawn) [Compound 40]	530 nM	2300 nM	110 nM	43 nM	25 µM	4500 nM
COCCn1cc(-c2nc(N)ncc2C#N)c2cc(C#CC(C)(C)O)ncc21 [Compound 41]	43 nM	240 nM	9 nM	3.5 nM	2.2 µM	290 nM
CC(C)(O)Cn1cc(-c2ccnc(N)n2)c2cc(C#CC3(O)CCC3)ncc21 [Compound 42]	84 nM	330 nM	24 nM	5.7 nM	16 µM	1500 nM
CCC(C)(O)C#Cc1cc2c(-c3ccnc(N)n3)cn(CC(C)(C)O)c2cn1 (stereo not drawn) [Compound 43]	280 nM	650 nM	38 nM	29 nM	> 10 µM	4100 nM
COCCCn1cc(-c2ccnc(N)n2)c2cc(C#CC(C)(C)O)ncc21 [Compound 44]	36 nM	250 nM	21 nM	25 nM	1.7 µM	400 nM
CC(C)(O)C#Cc1cc2c(-c3nc(N)ncc3F)c[nH]c2cn1 [Compound 45]	12 nM	22 nM	2 nM	3.9 nM	0.59 µM	90 nM

SMILES	IC50 [1]	EC50 (JJN-3 cells)	IC50 [2]	IC50 [3]	EC50 (LP-1 cells)	EC50 (L-363 cells)
Cc1c(-c2ccnc(N)n2)c2cc(C#CC(C)(C)O)ncc2n1CC(C)(C)O [Compound 46]	180 nM	1100 nM	55 nM	60 nM	> 10 µM	3600 nM
CCNc1nccc(-c2c[nH]c3cnc(C#CC(C)(C)O)cc23)n1 [Compound 48]	260 nM	380 nM	16 nM	65 nM	3.9 µM	650 nM
CNC(=O)CCn1cc(-c2ccnc(N)n2)c2cc(C#CC(C)(C)O)ncc21 [Compound 49]	5900 nM	32000 nM	360 nM	150 nM	> 10 µM	> 10000 nM
CN(C)C(=O)CCn1cc(-c2ccnc(N)n2)c2cc(C#CC(C)(C)O)ncc21 [Compound 50]	650 nM	2700 nM	230 nM	140 nM	> 10 µM	7500 nM
CC(C)(O)C#Cc1cc2c(-c3ccnc(N)n3)cn(CCC(C)(C)O)c2cn1 [Compound 51]	83 nM	990 nM	23 nM	48 nM	> 10 µM	2400 nM
COCCNC(=O)c1[nH]c2cnc(C#CC(C)(C)O)cc2c1-c1ccnc(N)n1 [Compound 52]	99 nM	1200 nM	33 nM	29 nM	30 µM	3200 nM
CC(C)(O)Cn1cc(-c2ccnc(N)n2)c2cc(C#CC(C)(O)CC3CC3)ncc21 (stereo not drawn) [Compound 53]	370 nM	450 nM	57 nM	45 nM	> 10 µM	> 10000 nM
COCCn1cc(-c2nc(N)ncc2F)c2cc(C#CC(C)(C)O)ncc21 [Compound 54]	21 nM	89 nM	17 nM	27 nM	0.33 µM	59 nM
CC(C)(O)C#Cc1cc2c(-c3ccnc(N)n3)cn(CC3CCOCC3)c2cn1 [Compound 55]	140 nM	380 nM	180 nM	84 nM	11 µM	980 nM
CC(C)(O)C#Cc1cc2c(-c3ccnc(N)n3)cn(CC#N)c2cn1 [Compound 56]	140 nM	840 nM	18 nM	25 nM	14 µM	840 nM
CC(C)(O)C#Cc1cc2c(-c3ccnc(N)n3)cn(CCC#N)c2cn1 [Compound 57]	180 nM	1300 nM	23 nM	17 nM	31 µM	910 nM
CNc1ncc(Cl)c(-c2cn(CC(C)(C)O)c3cnc(C#CC(C)(C)O)cc23)n1 [Compound 58]	110 nM	550 nM	700 nM	430 nM	2 µM	500 nM
CC(C)(O)Cn1cc(-c2ccnc(N)n2)c2cc(C#CC(C)(O)c3ccccn3)ncc21 (stereo not drawn) [Compound 59]	5000 nM	17000 nM	230 nM	71 nM	> 10 µM	> 10000 nM
CC(C)(O)C#Cc1cc2c(-c3nc(N)ncc3C#N)cn(CC(C)(C)O)c2cn1 [Compound 60]	19 nM	170 nM	11 nM	8.4 nM	14 µM	150 nM
CC(C)(O)C#Cc1cc2c(-c3nc(N)ncc3C(F)(F)F)c[nH]c2cn1 [Compound 61]	23 nM	260 nM	5 nM	3.8 nM	4.6 µM	340 nM
